Data reported in patent US11639352B2, “Benzothiazole compounds for the treatment of autoimmune diseases” (Hoffmann-La Roche Inc., priority 2018, dated 2023).

biological target: T1, human TLR7 (Homo sapiens, UniProt Q9NYK1); test: HEK293-Blue-hTLR-7 cells assay (SEAP reporter, R848 stimulation); type: cell-based; conditions: HEK293-Blue-hTLR7 cells, R848 ligand, 20 hrs incubation, antagonist
T1 sequence (Q9NYK1 27-1049): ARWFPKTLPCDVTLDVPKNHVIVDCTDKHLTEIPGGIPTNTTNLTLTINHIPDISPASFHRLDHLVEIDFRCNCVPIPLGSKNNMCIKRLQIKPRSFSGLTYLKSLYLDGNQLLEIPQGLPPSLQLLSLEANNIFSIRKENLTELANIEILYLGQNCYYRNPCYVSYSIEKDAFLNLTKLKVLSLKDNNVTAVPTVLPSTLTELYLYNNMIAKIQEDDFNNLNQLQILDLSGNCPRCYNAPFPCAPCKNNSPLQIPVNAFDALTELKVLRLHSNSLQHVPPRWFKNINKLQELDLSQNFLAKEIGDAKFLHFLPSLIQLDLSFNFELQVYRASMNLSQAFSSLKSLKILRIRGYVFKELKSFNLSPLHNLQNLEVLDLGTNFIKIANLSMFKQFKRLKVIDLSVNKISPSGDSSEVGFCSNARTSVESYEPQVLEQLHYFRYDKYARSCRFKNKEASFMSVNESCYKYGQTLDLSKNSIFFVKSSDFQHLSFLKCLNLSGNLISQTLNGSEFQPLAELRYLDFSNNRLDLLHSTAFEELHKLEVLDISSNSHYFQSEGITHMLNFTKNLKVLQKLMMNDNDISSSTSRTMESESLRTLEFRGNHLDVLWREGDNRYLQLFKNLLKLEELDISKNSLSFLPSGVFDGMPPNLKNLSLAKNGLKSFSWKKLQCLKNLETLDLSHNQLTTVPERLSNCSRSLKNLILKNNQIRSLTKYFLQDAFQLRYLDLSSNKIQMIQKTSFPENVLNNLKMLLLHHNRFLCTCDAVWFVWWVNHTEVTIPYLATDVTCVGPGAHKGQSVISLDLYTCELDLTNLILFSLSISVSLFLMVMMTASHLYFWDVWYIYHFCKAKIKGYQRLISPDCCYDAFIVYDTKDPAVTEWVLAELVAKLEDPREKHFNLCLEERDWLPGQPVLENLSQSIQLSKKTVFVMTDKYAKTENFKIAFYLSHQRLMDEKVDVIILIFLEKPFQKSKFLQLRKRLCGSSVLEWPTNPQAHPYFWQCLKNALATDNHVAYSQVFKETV
Description: The following tests were carried out in order to determine the activity of the compounds of formula (I) in HEK293-Blue-hTLR-7/8/9 cells assay.
HEK293-Blue-hTLR-7 Cells Assay:
A stable HEK293-Blue-hTLR-7 cell line was purchased from InvivoGen (Cat. #: hkb-htlr7, San Diego, Calif., USA). These cells were originally designed for studying the stimulation of human TLR7 by monitoring the activation of NF-κB. A SEAP (secreted embryonic alkaline phosphatase) reporter gene was placed under the control of the IFN-β minimal promoter fused to five NF-κB and AP-1-binding sites. The SEAP was induced by activating NF-κB and AP-1 via stimulating HEK-Blue hTLR7 cells with TLR7 ligands. Therefore the reporter expression was declined by TLR7 antagonist under the stimulation of a ligand, such as R848 (Resiquimod), for incubation of 20 hrs. The cell culture supernatant SEAP reporter activity was determined using QUANTI-Blue™ kit (Cat. #: rep-qb1, Invivogen, San Diego, Calif., USA) at a wavelength of 640 nm, a detection medium that turns purple or blue in the presence of alkaline phosphatase.
HEK293-Blue-hTLR7 cells were incubated at a density of 250,000˜450,000 cells/mL in a volume of 170 μL in a 96-well plate in Dulbecco's Modified Eagle's medium (DMEM) containing 4.5 g/L glucose, 50 U/mL penicillin, […], […], 2 mM L-glutamine, 10% (v/v) heat-inactivated fetal bovine serum with addition of 20 μL test compound in a serial dilution in the presence of final DMSO at 1% and 10 μL of 20 uM R848 in above DMEM, perform incubation under 37° C. in a CO2 incubator for 20 hrs. Then 20 μL of the supernatant from each well was incubated with 180 μL Quanti-blue substrate solution at 37° C. for 2 hrs and the absorbance was read at 620˜655 nm using a spectrophotometer. The signalling pathway that TLR7 activation leads to downstream NF-κB activation has been widely accepted, and therefore similar reporter assay was modified for evaluating TLR7 antagonist.

Point of comparison: `C[C@@H]1CN(c2ccc(C#N)c3ncsc23)C[C@H](CN2[C@@H]3CC[C@H]2C[C@@H](N)C3)O1` [Example 8, Endo-7-[(2S,6R)-2-[[(1R,5S)-3-amino-8-azabicyclo[3.2.1]octan-8-yl]methyl]-6-methyl-morpholin-4-yl]-1,3-benzothiazole-4-carbonitrile], IC50 16 nM. Against it:
- C[C@@H]1CN(c2ccc(C#N)c3ncsc23)C[C@H](CN2CCC3(CCCNC3)C2)O1 (stereo partly drawn) [Example 1, 7-[(2S,6R)-2-(2,9-diazaspiro[4.5]decan-2-ylmethyl)-6-methyl-morpholin-4-yl]-1,3-benzothiazole-4-carbonitrile] — within 1.5-fold, 11 nM
- C[C@@H]1CN(c2ccc(C#N)c3ncsc23)C[C@H](CN2CCC(N)CC2)O1 [Example 2, 7-[(2S,6R)-2-[(4-amino-1-piperidyl)methyl]-6-methyl-morpholin-4-yl]-1,3-benzothiazole-4-carbonitrile] — 1.6-fold higher, 26 nM
- C[C@@H]1CN(c2ccc(C#N)c3ncsc23)C[C@H](CN2CCC3(CCCNC3)CC2)O1 [Example 3, 7-[(2S,6R)-2-(2,9-diazaspiro[5.5]undecan-9-ylmethyl)-6-methyl-morpholin-4-yl]-1,3-benzothiazole-4-carbonitrile] — within 1.5-fold, 19 nM
- C[C@@H]1CN(c2ccc(C#N)c3ncsc23)C[C@H](CN2CC3(CCCNC3)C2)O1 [Example 4, 7-[(2S,6R)-2-(2,8-diazaspiro[3.5]nonan-2-ylmethyl)-6-methyl-morpholin-4-yl]-1,3-benzothiazole-4-carbonitrile] — within 1.5-fold, 12 nM
- C[C@@H]1CN(c2ccc(C#N)c3ncsc23)C[C@H](CN2CCC3(CCNCC3)CC2)O1 [Example 5, 7-[(2S,6R)-2-(3,9-diazaspiro[5.5]undecan-3-ylmethyl)-6-methyl-morpholin-4-yl]-1,3-benzothiazole-4-carbonitrile] — 3-fold higher, 48 nM
- C[C@@H]1CN(c2ccc(C#N)c3ncsc23)C[C@H](CN2CCC3(CCNC3)CC2)O1 [Example 6, 7-[(2S,6R)-2-(2,8-diazaspiro[4.5]decan-8-ylmethyl)-6-methyl-morpholin-4-yl]-1,3-benzothiazole-4-carbonitrile] — 2.6-fold higher, 41 nM
- C[C@@H]1CN(c2ccc(C#N)c3ncsc23)C[C@H](CN2CCC(N3CCCCC3)CC2)O1 [Example 7, 7-[(2R,6S)-2-methyl-6-[[4-(1-piperidyl)-1-piperidyl]methyl]morpholin-4-yl]-1,3-benzothiazole-4-carbonitrile] — within 1.5-fold, 13 nM
- C[C@@H]1CN(c2ccc(C#N)c3ncsc23)C[C@H](CN2[C@@H]3CC[C@H]2C[C@H](N)C3)O1 [Example 9, Exo-7-[(2S,6R)-2-[[(1S,5R)-3-amino-8-azabicyclo[3.2.1]octan-8-yl]methyl]-6-methyl-morpholin-4-yl]-1,3-benzothiazole-4-carbonitrile] — 2.8-fold higher, 45 nM
- C[C@@H]1CN(c2ccc(C#N)c3ncsc23)C[C@H](CN2CCC3(CCCN(C)C3)CC2)O1 [Example 10, 7-[(2R,6S)-2-methyl-6-[(2-methyl-2,9-diazaspiro[5.5]undecan-9-yl)methyl]morpholin-4-yl]-1,3-benzothiazole-4-carbonitrile] — within 1.5-fold, 15 nM
- C[C@@H]1CN(c2ccc(C#N)c3ncsc23)C[C@H](C(=O)NC2CCN(C)CC2)O1 [Example 11, (2R,6R)-4-(4-cyano-1,3-benzothiazol-7-yl)-6-methyl-N-(1-methyl-4-piperidyl)morpholine-2-carboxamide] — 3.2-fold lower, 5 nM
- C[C@@H]1CN(c2ccc(C#N)c3ncsc23)C[C@H](C(=O)NCC2CN(C)CCO2)O1 (stereo partly drawn) [Example 12, (2R,6R)-4-(4-cyano-1,3-benzothiazol-7-yl)-6-methyl-N-[(4-methylmorpholin-2-yl)methyl]morpholine-2-carboxamide] — 4-fold lower, 4 nM
